The values that follow come from PubChem BioAssay (NCI).

Test systems include PC-3 prostate; SNB-19 CNS; TK-10 renal; CAKI-1 renal; K-562 leukemia; HCT-15 colon; SW-620 colon; RXF 393 renal; IGROV1 ovarian; OVCAR-4 ovarian; HL-60(TB) leukemia; HCC-2998 colon; MDA-N; DU-145 prostate; U251 CNS; NCI-H226 lung; SR leukemia; HOP-92 NSCLC; SK-MEL-5 melanoma; CCRF-CEM leukemia.
Holding throughout (assay): inhibition of tumour cell growth, NCI panel, 48 h

Molecules are shown by their SMILES.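 All cell lines were grown in 96-well plates and treated with compound for 48 hours. TGI: total growth inhibition.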

On to `NC(N)=NS(=O)(=O)c1ccc(Nc2c3ccccc3nc3ccc(C(=O)Nc4ccc(S(N)(=O)=O)cc4)cc23)cc1`, for which the TGI in the experiment on PC-3 prostate, with SNB-19 CNS, with TK-10 renal, with CAKI-1 renal, in the experiment on K-562 leukemia and in the experiment with HCT-15 colon was greater than 100 µM in each case. Moreover, the TGI with SW-620 colon, with RXF 393 renal, with IGROV1 ovarian, in the experiment with OVCAR-4 ovarian, with HL-60(TB) leukemia and with HCC-2998 colon was greater than 100 µM throughout. For the same compound, the TGI with MDA-N, in the experiment on DU-145 prostate, with U251 CNS, in the experiment on NCI-H226 lung, in the experiment on SR leukemia and in the experiment on HOP-92 NSCLC was greater than 100 µM each time. The TGI in the experiment with SK-MEL-5 melanoma and with CCRF-CEM leukemia was greater than 100 µM throughout.
On to `CC(=O)OCC1OC(O[C@@H]2C[C@H]3C(C)(C)[C@H](OC(C)=O)CC[C@]3(C)[C@H]3CC[C@@]45C[C@H](O)C[C@H](C)[C@@H]4CC=C5[C@@]32C)C(O)C(O)C1O` (stereo not given in full), for which the TGI in the experiment with PC-3 prostate came out at 10.7 µM; with SNB-19 CNS, 14.9 µM; in the experiment with TK-10 renal, 21.4 µM; in the experiment with CAKI-1 renal it was 24.6 µM; with K-562 leukemia, 7.66 µM; with HCT-15 colon, 25.5 µM. The TGI is 16.6 µM in the experiment with SW-620 colon; 6.23 µM in the experiment with RXF 393 renal; 9.33 µM in the experiment on IGROV1 ovarian; 16.4 µM in the experiment on OVCAR-4 ovarian; 3.86 µM with HL-60(TB) leukemia; 3.72 µM with HCC-2998 colon. Further, the TGI with MDA-N came to 12.4 µM; with DU-145 prostate, 20.6 µM; in the experiment on U251 CNS it was 10.3 µM; with NCI-H226 lung it was 16.1 µM; in the experiment with SR leukemia it was 4.27 µM; in the experiment with HOP-92 NSCLC, 15 µM. Besides, the figures for the TGI in the experiment with SK-MEL-5 melanoma and with CCRF-CEM leukemia were 8.65 µM and 13.6 µM, respectively.
In the case of `Cc1cc2c(cc1C)C(=O)c1ncccc1C2=O`, the TGI with PC-3 prostate, in the experiment with SNB-19 CNS, with TK-10 renal, with CAKI-1 renal, in the experiment on K-562 leukemia and with HCT-15 colon was greater than 100 µM throughout. Also, the TGI was greater than 100 µM in the experiment on SW-620 colon; greater than 100 µM with RXF 393 renal; greater than 100 µM with IGROV1 ovarian; greater than 100 µM in the experiment on OVCAR-4 ovarian; 30.6 µM with HL-60(TB) leukemia; greater than 100 µM in the experiment with HCC-2998 colon. The TGI was 36.2 µM in the experiment on MDA-N; greater than 100 µM in the experiment on DU-145 prostate; greater than 100 µM with U251 CNS; greater than 100 µM with NCI-H226 lung; 25 µM in the experiment on SR leukemia; greater than 100 µM in the experiment with HOP-92 NSCLC. Moreover, the TGI was 23.2 µM in the experiment on SK-MEL-5 melanoma and greater than 100 µM with CCRF-CEM leukemia.
For the compound `COC(OC)C1(c2ccccc2)Oc2ccccc2C1=O` (stereo not given), the TGI with PC-3 prostate, with SNB-19 CNS, with TK-10 renal, in the experiment with CAKI-1 renal, in the experiment with K-562 leukemia and with HCT-15 colon was greater than 100 µM throughout. In addition, the TGI with SW-620 colon, in the experiment on RXF 393 renal, in the experiment with IGROV1 ovarian, in the experiment on OVCAR-4 ovarian, in the experiment with HL-60(TB) leukemia and in the experiment with HCC-2998 colon was greater than 100 µM each time. For the same compound, the TGI in the experiment on MDA-N, in the experiment on DU-145 prostate, with U251 CNS, in the experiment with NCI-H226 lung, with SR leukemia and in the experiment on HOP-92 NSCLC was greater than 100 µM in each case. Besides, the TGI in the experiment on SK-MEL-5 melanoma and in the experiment on CCRF-CEM leukemia was greater than 100 µM in each case.
Take `COC(=O)C1=C(O)C(C(=O)OC)[C@]2(O)[C@H](C(=O)OC)[C@H]1C[C@@H](c1ccccc1OC)[C@H]2C(=O)OC` (stereo not given in full): the TGI was 20.7 µM with PC-3 prostate; 19.7 µM in the experiment on SNB-19 CNS; greater than 54.7 µM in the experiment on TK-10 renal; 17.5 µM with CAKI-1 renal; greater than 38.9 µM in the experiment with K-562 leukemia; 13.5 µM in the experiment on HCT-15 colon. Also, the TGI amounted to 19.6 µM in the experiment with SW-620 colon; 20.2 µM with RXF 393 renal; 11.3 µM in the experiment with IGROV1 ovarian; 31.3 µM in the experiment with OVCAR-4 ovarian; 10.5 µM in the experiment on HL-60(TB) leukemia; 22.2 µM in the experiment on HCC-2998 colon. For the same compound, the TGI is 4.79 µM in the experiment with MDA-N; 26.2 µM in the experiment with DU-145 prostate; 19.3 µM with U251 CNS; 20.7 µM in the experiment with NCI-H226 lung; 7.04 µM in the experiment on SR leukemia; 15.7 µM in the experiment with HOP-92 NSCLC. Also, the figures for the TGI with SK-MEL-5 melanoma and in the experiment on CCRF-CEM leukemia were 13.2 µM and 21.1 µM, respectively.
As to `CCOC(=O)N/N=C/C1=NN(C(=O)OCC)S(=O)C1C` (stereo not given), the TGI in the experiment on PC-3 prostate, in the experiment with SNB-19 CNS, in the experiment with TK-10 renal, with CAKI-1 renal, in the experiment on K-562 leukemia and in the experiment on HCT-15 colon was greater than 100 µM throughout. Besides, the TGI with SW-620 colon, in the experiment with RXF 393 renal, in the experiment with IGROV1 ovarian, in the experiment with OVCAR-4 ovarian, in the experiment with HL-60(TB) leukemia and with HCC-2998 colon was greater than 100 µM throughout. Moreover, the TGI in the experiment on MDA-N, in the experiment with DU-145 prostate, in the experiment on U251 CNS, in the experiment with NCI-H226 lung, in the experiment with SR leukemia and in the experiment on HOP-92 NSCLC was greater than 100 µM throughout. Moreover, the TGI in the experiment with SK-MEL-5 melanoma and in the experiment with CCRF-CEM leukemia was greater than 100 µM each time.
